In ChEMBL document CHEMBL5512619, “Anticancer mechanism of coumarin-based derivatives” (Eur J Med Chem, 2024):
Each block holds one molecule with its values, some of them ahead of it.

Key:
[1] = Antiproliferative activity against human Lu1 cells assessed as inhibition of cell growth after 72 hrs by MTT assay; format: functional, cell-based; settings: Lu1, 72 h
SK-MEL-2 = experiment: Antiproliferative activity against human SK-MEL-2 cells assessed as inhibition of cell growth after 72 hrs by MTT assay; format: functional, cell-based; settings: SK-MEL-2, 72 h
HepG2 [2] = experiment: Antiproliferative activity against human HepG2 cells assessed as inhibition of cell growth after 72 hrs by MTT assay; format: functional, cell-based; settings: HepG2, 72 h
MCF7 = experiment: Antiproliferative activity against human MCF7 cells assessed as inhibition of cell growth after 72 hrs by MTT assay; format: functional, cell-based; settings: MCF7, 72 h
HeLa [3] = experiment: Antiproliferative activity against human HeLa cells assessed as inhibition of cell growth after 72 hrs by MTT assay; format: functional, cell-based
Carbonic anhydrase 2 = Carbonic anhydrase 2 (Homo sapiens, UniProt P00918); experiment: Binding affinity to human CA2 assessed as inhibition constant incubated for 10 mins by phenol red dye based stopped flow CO2 hydration assay
Carbonic anhydrase 1 = Carbonic anhydrase 1 (Homo sapiens, UniProt P00915); experiment: Binding affinity to human CA1 assessed as inhibition constant incubated for 10 mins by phenol red dye based stopped flow CO2 hydration assay
[4] = target: Receptor tyrosine-protein kinase erbB-2 (Homo sapiens, UniProt P04626); experiment: Inhibition of HER2 (unknown origin)
HepG2 [5] = experiment: Cytotoxicity against human HepG2 cells; format: functional, cell-based
[6] = Cytotoxicity against human Lu1 cells; format: functional, cell-based
HeLa [7] = experiment: Cytotoxicity against human HeLa cells; format: functional, cell-based
[8] = target: Epidermal growth factor receptor (Homo sapiens, UniProt P00533); experiment: Inhibition of EGFR (unknown origin)
A549 = experiment: Antiproliferative activity against human A549 cells incubated 24 hrs by MTT assay; format: functional, cell-based; settings: A549, 24 h
MDA-MB-231 = experiment: Antiproliferative activity against human MDA-MB-231 cells incubated 24 hrs by MTT assay; format: functional, cell-based; settings: MDA-MB-231, 24 h
HeLa [9] = experiment: Cytotoxicity against human HeLa cells incubated for 72 hrs by MTT assay; format: functional, cell-based
HepG2 [10] = experiment: Cytotoxicity against human HepG2 cells incubated for 72 hrs by MTT assay; format: functional, cell-based; settings: HepG2, 72 h
[11] = Cytotoxicity against human Lu1 cells incubated for 72 hrs by MTT assay; format: functional, cell-based; settings: Lu1, 72 h

Epidermal growth factor receptor, sequence (P00533 whole entry): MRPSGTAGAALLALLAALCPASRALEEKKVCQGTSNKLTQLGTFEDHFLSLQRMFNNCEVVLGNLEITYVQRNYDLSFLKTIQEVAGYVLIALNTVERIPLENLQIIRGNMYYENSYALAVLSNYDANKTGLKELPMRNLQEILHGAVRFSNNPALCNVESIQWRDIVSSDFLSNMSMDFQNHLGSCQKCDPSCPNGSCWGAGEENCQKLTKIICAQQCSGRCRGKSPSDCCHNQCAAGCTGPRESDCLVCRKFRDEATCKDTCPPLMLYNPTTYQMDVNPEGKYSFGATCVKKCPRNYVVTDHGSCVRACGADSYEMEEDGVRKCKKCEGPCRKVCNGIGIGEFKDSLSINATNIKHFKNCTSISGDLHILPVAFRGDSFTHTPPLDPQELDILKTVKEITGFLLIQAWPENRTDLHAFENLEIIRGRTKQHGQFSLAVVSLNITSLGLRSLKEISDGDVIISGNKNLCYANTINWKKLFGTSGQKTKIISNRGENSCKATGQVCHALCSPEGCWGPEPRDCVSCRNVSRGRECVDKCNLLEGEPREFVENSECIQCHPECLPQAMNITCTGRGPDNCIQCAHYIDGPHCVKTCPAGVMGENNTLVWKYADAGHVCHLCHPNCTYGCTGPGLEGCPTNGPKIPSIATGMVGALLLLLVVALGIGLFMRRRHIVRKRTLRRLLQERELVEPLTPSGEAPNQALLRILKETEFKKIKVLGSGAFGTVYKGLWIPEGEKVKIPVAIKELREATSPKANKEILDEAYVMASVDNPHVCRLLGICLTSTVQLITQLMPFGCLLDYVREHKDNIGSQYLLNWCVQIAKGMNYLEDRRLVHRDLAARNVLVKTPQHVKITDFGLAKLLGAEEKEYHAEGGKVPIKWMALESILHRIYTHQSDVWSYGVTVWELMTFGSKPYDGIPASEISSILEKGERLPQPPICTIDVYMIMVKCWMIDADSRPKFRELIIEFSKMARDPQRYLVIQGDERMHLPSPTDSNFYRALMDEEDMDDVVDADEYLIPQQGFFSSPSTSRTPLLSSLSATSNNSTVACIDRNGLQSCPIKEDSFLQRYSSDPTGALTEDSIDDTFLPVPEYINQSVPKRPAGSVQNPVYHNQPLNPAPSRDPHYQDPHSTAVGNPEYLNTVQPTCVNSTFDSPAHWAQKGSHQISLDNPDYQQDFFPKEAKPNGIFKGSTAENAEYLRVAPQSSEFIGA
Carbonic anhydrase 1, sequence (P00915 whole entry): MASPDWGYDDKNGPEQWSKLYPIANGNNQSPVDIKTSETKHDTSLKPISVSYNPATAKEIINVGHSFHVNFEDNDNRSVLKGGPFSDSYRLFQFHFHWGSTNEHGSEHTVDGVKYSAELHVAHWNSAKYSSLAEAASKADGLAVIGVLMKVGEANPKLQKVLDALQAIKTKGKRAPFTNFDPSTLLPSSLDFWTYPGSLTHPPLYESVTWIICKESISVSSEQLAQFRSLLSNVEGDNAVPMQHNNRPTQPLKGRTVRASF
Receptor tyrosine-protein kinase erbB-2, sequence (P04626 whole entry): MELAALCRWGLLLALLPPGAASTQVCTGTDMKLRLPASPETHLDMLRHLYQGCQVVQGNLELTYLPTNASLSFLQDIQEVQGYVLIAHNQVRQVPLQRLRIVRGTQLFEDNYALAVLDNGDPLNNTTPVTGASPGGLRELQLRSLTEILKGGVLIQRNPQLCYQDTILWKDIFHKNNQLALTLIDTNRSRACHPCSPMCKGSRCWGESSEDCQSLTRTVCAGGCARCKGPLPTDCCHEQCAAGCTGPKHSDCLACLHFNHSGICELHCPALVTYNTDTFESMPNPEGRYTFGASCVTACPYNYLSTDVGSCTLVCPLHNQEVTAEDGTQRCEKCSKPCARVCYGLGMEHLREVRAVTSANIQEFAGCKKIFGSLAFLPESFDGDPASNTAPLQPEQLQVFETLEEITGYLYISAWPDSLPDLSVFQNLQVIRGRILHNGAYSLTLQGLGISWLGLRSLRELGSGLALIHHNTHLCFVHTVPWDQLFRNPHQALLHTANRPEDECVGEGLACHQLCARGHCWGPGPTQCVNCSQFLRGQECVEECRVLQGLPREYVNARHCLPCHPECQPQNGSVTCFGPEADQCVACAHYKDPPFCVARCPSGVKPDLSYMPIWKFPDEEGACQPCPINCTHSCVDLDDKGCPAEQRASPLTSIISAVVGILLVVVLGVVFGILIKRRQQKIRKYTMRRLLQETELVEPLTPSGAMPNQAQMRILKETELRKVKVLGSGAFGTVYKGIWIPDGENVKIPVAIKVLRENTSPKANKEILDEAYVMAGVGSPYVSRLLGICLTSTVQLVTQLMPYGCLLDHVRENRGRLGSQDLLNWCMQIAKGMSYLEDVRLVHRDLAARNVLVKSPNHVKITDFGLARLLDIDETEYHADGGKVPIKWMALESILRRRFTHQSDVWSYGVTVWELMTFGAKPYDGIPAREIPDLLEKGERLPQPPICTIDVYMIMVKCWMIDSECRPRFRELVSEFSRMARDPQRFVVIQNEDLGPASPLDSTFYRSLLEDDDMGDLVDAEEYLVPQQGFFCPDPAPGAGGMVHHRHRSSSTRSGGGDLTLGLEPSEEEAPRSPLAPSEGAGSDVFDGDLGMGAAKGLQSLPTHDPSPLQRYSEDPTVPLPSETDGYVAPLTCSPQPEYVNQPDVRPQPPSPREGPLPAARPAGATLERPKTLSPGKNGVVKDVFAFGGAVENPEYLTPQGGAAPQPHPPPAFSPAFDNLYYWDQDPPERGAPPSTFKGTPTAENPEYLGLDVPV

SMILES: CC(=O)OC[C@H]1O[C@@H](NC(=S)N/N=C(\C)c2cc3cc(C)ccc3oc2=O)[C@H](OC(C)=O)[C@@H](OC(C)=O)[C@H]1OC(C)=O
IC50 [1]: 1280 nM
IC50 (SK-MEL-2): 1280 nM
IC50 (HepG2 [2]): 1280 nM
IC50 (MCF7): 1280 nM
IC50 (HeLa [3]): 1280 nM

SMILES: O=C(Nc1ccc2c(c1)C=CS(=O)(=O)O2)c1ccc(Cl)c(S(=O)(=O)N2CCOCC2)c1
Ki (Carbonic anhydrase 2): 99.4 nM
Ki (Carbonic anhydrase 1): 99.4 nM

SMILES: COc1ccc(C(=O)Nc2ccc3c(c2)C=CS(=O)(=O)O3)cc1S(=O)(=O)N1CCSCC1
Ki (Carbonic anhydrase 2): 99.4 nM
Ki (Carbonic anhydrase 1): 99.4 nM

SMILES: CC(=O)OC[C@H]1O[C@@H](n2c(-c3ccccc3)cs/c2=N\N=C(/C)c2cc3cc(Cl)ccc3oc2=O)[C@H](OC(C)=O)[C@@H](OC(C)=O)[C@H]1OC(C)=O
IC50 (HepG2 [5]): 1180 nM
IC50 [6]: 1180 nM
IC50 (HeLa [7]): 1180 nM

SMILES: O=C(Nc1ccc2c(c1)C=CS(=O)(=O)O2)c1cccc(S(=O)(=O)N2CCOCC2)c1
Ki (Carbonic anhydrase 2): 99.4 nM
Ki (Carbonic anhydrase 1): 99.4 nM

SMILES: CCOc1ccc2c(C3SC(N(C(C)=O)[C@@H]4O[C@H](COC(C)=O)[C@H](OC(C)=O)[C@H](OC(C)=O)[C@H]4OC(C)=O)=NN3C(C)=O)cc(=O)oc2c1 (stereo partly drawn)
IC50 (HeLa [9]): 1180 nM
IC50 [4]: 130 nM
IC50 (HepG2 [10]): 1180 nM
IC50 [11]: 1180 nM
IC50 [8]: 220 nM

SMILES: CC(=O)OC[C@H]1O[C@@H](n2c(-c3ccccc3)cs/c2=N\N=C(/C)c2cc3cc(Br)ccc3oc2=O)[C@H](OC(C)=O)[C@@H](OC(C)=O)[C@H]1OC(C)=O
IC50 (HepG2 [5]): 1180 nM
IC50 [6]: 1180 nM
IC50 (HeLa [7]): 1180 nM

SMILES: CC(=O)OC[C@H]1O[C@@H](NC(=S)N/N=C(\C)c2cc3cc(Cl)ccc3oc2=O)[C@H](OC(C)=O)[C@@H](OC(C)=O)[C@H]1OC(C)=O
IC50 [1]: 1280 nM
IC50 (SK-MEL-2): 1280 nM
IC50 (HepG2 [2]): 1280 nM
IC50 (MCF7): 1280 nM
IC50 (HeLa [3]): 1280 nM

SMILES: COc1cccc2cc(/C(C)=N/NC(=S)N[C@@H]3O[C@H](COC(C)=O)[C@H](OC(C)=O)[C@H](OC(C)=O)[C@H]3OC(C)=O)c(=O)oc12
IC50 [1]: 1280 nM
IC50 (SK-MEL-2): 1280 nM
IC50 (HepG2 [2]): 1280 nM
IC50 (MCF7): 1280 nM
IC50 (HeLa [3]): 1280 nM

SMILES: Cc1ccc(C(=O)Nc2ccc3c(c2)C=CS(=O)(=O)O3)cc1S(=O)(=O)N1CCCCC1
Ki (Carbonic anhydrase 2): 99.4 nM
Ki (Carbonic anhydrase 1): 99.4 nM

SMILES: CC(=O)OC[C@H]1O[C@@H](N(C(C)=O)C2=NN(C(C)=O)C(c3cc(=O)oc4ccc(OCCC(C)C)cc34)S2)[C@H](OC(C)=O)[C@@H](OC(C)=O)[C@@H]1OC(C)=O (stereo partly drawn)
IC50 (HeLa [9]): 1180 nM
IC50 [4]: 130 nM
IC50 (HepG2 [10]): 1180 nM
IC50 [11]: 1180 nM
IC50 [8]: 220 nM

SMILES: COc1ccc(C(=O)Nc2ccc3c(c2)C=CS(=O)(=O)O3)cc1S(=O)(=O)N1CCOCC1
Ki (Carbonic anhydrase 2): 99.4 nM
Ki (Carbonic anhydrase 1): 99.4 nM

SMILES: CC(=O)OC[C@H]1O[C@@H](NC(=S)N/N=C(\C)c2c(O)c3ccccc3oc2=O)[C@H](OC(C)=O)[C@@H](OC(C)=O)[C@H]1OC(C)=O
IC50 [1]: 1280 nM
IC50 (SK-MEL-2): 1280 nM
IC50 (HepG2 [2]): 1280 nM
IC50 (MCF7): 1280 nM
IC50 (HeLa [3]): 1280 nM

SMILES: CC(=O)OC[C@H]1O[C@@H](N(C(C)=O)C2=NN(C(C)=O)C(c3cc(=O)oc4cc(OCCC(C)C)ccc34)S2)[C@H](OC(C)=O)[C@@H](OC(C)=O)[C@@H]1OC(C)=O (stereo partly drawn)
IC50 (HeLa [9]): 1180 nM
IC50 [4]: 130 nM
IC50 (HepG2 [10]): 1180 nM
IC50 [11]: 1180 nM
IC50 [8]: 220 nM

SMILES: COc1ccc(C(=O)Nc2ccc3c(c2)C=CS(=O)(=O)O3)cc1S(=O)(=O)N1CCCC1
Ki (Carbonic anhydrase 2): 99.4 nM
Ki (Carbonic anhydrase 1): 99.4 nM

Now from value to molecule, other results behind:

IC50 [4]: 150 nM
IC50 [8]: 150 nM
SMILES: CCCCCOc1ccc2oc(=O)cc(/C=N/N=c3\scc(-c4ccccc4)n3[C@@H]3O[C@H](COC(C)=O)[C@@H](OC(C)=O)[C@H](OC(C)=O)[C@H]3OC(C)=O)c2c1
IC50 (HepG2 [5]): 1180 nM
IC50 [6]: 1180 nM
IC50 (HeLa [7]): 1180 nM

IC50 (A549): < 10000 nM
IC50 (MDA-MB-231): < 10000 nM
SMILES: O=c1oc2ccccc2cc1-c1cc(-c2ccccc2Cl)nc(Cc2ccc(F)cc2)n1

IC50 [4]: 150 nM
IC50 [8]: 150 nM
SMILES: CC(=O)OC[C@H]1O[C@@H](n2c(-c3ccccc3)cs/c2=N\N=C\c2cc(=O)oc3cc(OCCC(C)C)ccc23)[C@H](OC(C)=O)[C@@H](OC(C)=O)[C@@H]1OC(C)=O
IC50 (HepG2 [5]): 1180 nM
IC50 [6]: 1180 nM
IC50 (HeLa [7]): 1180 nM

IC50 (A549): < 10000 nM
IC50 (MDA-MB-231): < 10000 nM
SMILES: O=c1oc2ccccc2cc1-c1cc(-c2ccc(Cl)cc2)nc(Cc2ccc(F)cc2)n1

Ki (Carbonic anhydrase 2): 99.4 nM
Ki (Carbonic anhydrase 1): 99.4 nM
SMILES: O=C(Nc1ccc2c(c1)C=CS(=O)(=O)O2)c1ccc(F)c(S(=O)(=O)N2CCOCC2)c1

Ki (Carbonic anhydrase 2): 99.4 nM
Ki (Carbonic anhydrase 1): 99.4 nM
SMILES: O=C(Nc1ccc2c(c1)C=CS(=O)(=O)O2)c1ccc(Cl)c(S(=O)(=O)N2CCCCC2)c1

IC50 (A549): < 10000 nM
IC50 (MDA-MB-231): < 10000 nM
SMILES: Cc1cccc(-c2cc(-c3cc4ccccc4oc3=O)nc(Cc3ccc(F)cc3)n2)c1

IC50 [4]: 150 nM
IC50 [8]: 150 nM
SMILES: CC(=O)OC[C@H]1O[C@@H](n2c(-c3ccccc3)cs/c2=N\N=C\c2cc(=O)oc3ccc(OCC(C)C)cc23)[C@H](OC(C)=O)[C@@H](OC(C)=O)[C@@H]1OC(C)=O
IC50 (HepG2 [5]): 1180 nM
IC50 [6]: 1180 nM
IC50 (HeLa [7]): 1180 nM
